Measurements reported in patent publication US4605614A, “Method for measuring plasmin” (Nitto Boseki Co., Ltd., priority 1981, dated 1986).
Where a SMILES comes first, the peptide text is derived from it.

Columns and labels:
plasmin (pig) [1] = target: T1, plasmin (pig) (Sus scrofa, UniProt P06867); assay: Km, Vmax and Vmax/Km of substrates for plasmin (pig); assay type: biochemical, Porcine (pig); settings: for Vmax (× 10^-6) [mole/min/Cu]: Porcine Plasmin, comparison table in description; for V/Km (× 10^-3) / Vmax (× 10^7): TABLE 1, PNA substrates, plasmin (pig); for Vmax (× 10^7): 405 nm; for Vmax (× 10^-7): TABLE 2, CHA substrates, plasmin (pig), 2,6-xylenol 615 nm
T1 sequence (P06867 97-809): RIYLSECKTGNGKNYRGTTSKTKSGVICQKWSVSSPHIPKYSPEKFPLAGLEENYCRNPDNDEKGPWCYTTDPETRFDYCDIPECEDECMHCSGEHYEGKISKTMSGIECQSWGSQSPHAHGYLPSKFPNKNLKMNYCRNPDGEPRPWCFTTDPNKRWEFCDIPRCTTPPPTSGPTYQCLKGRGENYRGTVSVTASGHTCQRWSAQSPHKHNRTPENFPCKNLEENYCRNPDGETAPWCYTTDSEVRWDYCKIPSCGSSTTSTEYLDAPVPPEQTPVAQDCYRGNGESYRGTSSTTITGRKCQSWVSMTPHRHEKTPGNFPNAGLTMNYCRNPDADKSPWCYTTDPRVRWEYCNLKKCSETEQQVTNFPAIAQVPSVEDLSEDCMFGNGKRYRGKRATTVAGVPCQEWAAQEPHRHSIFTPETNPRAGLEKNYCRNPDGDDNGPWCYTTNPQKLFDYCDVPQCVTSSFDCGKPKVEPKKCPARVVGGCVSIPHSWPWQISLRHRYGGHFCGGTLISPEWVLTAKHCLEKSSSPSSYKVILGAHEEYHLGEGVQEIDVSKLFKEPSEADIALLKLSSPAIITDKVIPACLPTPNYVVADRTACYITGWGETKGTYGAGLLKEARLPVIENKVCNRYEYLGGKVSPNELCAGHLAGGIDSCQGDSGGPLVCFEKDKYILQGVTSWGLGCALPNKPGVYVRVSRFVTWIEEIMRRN
Source text: The substrates produced by the above examples were used in the measurement of plasmin as follows: The principle of this measurement comprises quantitatively analyzing the decomposition product p-nitroaniline or 3-carboxy-4-hydroxyaniline produced by the enzymatic hydrolysis, by measuring the absorbance (O.D.) directly at 405 nm in the case of p-nitroaniline and, in the case of the 3-carboxy-4-hydroxyaniline at 615 nm after condensing it with 2,6-xylenol in the presence of an oxidant to develop a color.
For the measurements of these constants, the following method is adopted:
The enzyme and the substrate are mixed in a buffer solution and subjected to the hydrolysis for 30 seconds. The concentration of the substrate [S] is changed and the enzyme concentration is maintained constant. By measuring the absorbance (O.D.), the initial velocity of the hydrolysis can be determined. Where 1/V is plotted as a function of 1/[S], there is obtained a Lineweaver and Burk's linea from which graph the Vmax and Km can be determined.

Thrombin (TH) = Thrombin (TH) (Bos taurus, UniProt P00735); assay type: biochemical, Cow; settings: pH 8.4, 37° C., 10 minutes, 1.0 NIH/ml; for Selectivity TH, absorbance (O.D.) at 405 nm: TABLE 3, PNA substrates, So = 0.54 mmole/l; for Selectivity TH, absorbance (O.D.) at 645 nm: TABLE 4, CHA substrates, So = 0.54
Thrombin (TH), sequence (P00735 44-625): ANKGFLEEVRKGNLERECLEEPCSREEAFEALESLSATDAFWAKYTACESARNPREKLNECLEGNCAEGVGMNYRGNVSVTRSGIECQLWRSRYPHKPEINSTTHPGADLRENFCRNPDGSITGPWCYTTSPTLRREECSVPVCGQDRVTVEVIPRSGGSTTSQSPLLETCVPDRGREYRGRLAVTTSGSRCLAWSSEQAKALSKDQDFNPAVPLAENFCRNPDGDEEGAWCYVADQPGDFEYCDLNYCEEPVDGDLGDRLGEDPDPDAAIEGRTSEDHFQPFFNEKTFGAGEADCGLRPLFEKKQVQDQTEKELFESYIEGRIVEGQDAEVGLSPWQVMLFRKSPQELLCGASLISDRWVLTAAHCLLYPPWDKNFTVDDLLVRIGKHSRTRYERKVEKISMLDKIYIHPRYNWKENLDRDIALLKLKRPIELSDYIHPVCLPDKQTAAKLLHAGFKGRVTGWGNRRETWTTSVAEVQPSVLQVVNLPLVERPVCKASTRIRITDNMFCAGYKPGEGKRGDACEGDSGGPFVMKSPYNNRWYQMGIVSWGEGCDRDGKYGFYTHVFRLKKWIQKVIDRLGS
Procedure: (§1) The specificities of the novelly synthesized substrates were tested by reacting them with various enzymes respectively.
(§2) (1) Substrate solution concentration: 35 mmole/liter H2 O
(§3) (2) Buffer: Tris-hydrochloric acid buffer 50 mmole/l, NaCl 150 mmole/l (0.875%) was employed, and the pH for reaction was as follows depending on the enzyme.
(§4) 2,6-Xylenol 7.0 mmole+NaIO4 1.5 mmole/0.2N KOH
(§5) 0.5 ml of the buffer solution and 0.05 ml of the enzyme reagent were taken into a silicon-treated hard glass test tube or a plastic test tube, and preheated in a constant temperature bath at 37° C. for 5 minutes. Thereafter, 0.1 ml of the substrate solution was added to effect the enzymatic reaction at 37° C. for 10 minutes. Exactly after 10 minutes, 2.5 ml of the reaction terminating solution or the terminating and color developing reagent solution was added to terminate the enzymatic reaction, and after allowing to stand at 25° C. for 10 minutes, the absorbance at 405 nm or 645 nm was measured, in which [drawing 49]

Plasmin (PL) = Plasmin (PL) (Sus scrofa, UniProt P06867); assay type: biochemical, Pig; settings: pH 7.4, 37° C., 10 minutes, 0.32 CU/ml; for Selectivity PL, absorbance (O.D.) at 405 nm: TABLE 3, PNA substrates, So = 0.54 mmole/l; for Selectivity PL, absorbance (O.D.) at 645 nm: TABLE 4, CHA substrates, So = 0.54
Plasmin (PL), sequence (P06867 97-809): as the sequence (P06867 97-809) above
Procedure: as §2, §3
Plasmin Pig Sigma (U.S.A.)
as §5

Kallikrein (KL) = Kallikrein (KL) (Sus scrofa, UniProt P00752); assay type: biochemical, Pig; settings: pH 7.9, 37° C., 10 minutes, 1.0 BAEE-U/ml; for Selectivity KL, absorbance (O.D.) at 405 nm: TABLE 3, PNA substrates, So = 0.54 mmole/l; for Selectivity KL, absorbance (O.D.) at 645 nm: TABLE 4, CHA substrates, So = 0.54
Kallikrein (KL), sequence (P00752 8-246): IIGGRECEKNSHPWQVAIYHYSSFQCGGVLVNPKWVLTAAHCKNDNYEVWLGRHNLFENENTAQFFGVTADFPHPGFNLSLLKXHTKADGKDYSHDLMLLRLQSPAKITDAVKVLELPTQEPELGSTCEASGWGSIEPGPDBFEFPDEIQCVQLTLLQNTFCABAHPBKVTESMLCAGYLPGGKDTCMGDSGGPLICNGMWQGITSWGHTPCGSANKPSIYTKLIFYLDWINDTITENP
Procedure: as §1, §2, §3, §4, §5

Factor-Xa (FXa) = Factor-Xa (FXa) (Bos taurus, UniProt P00743); assay type: biochemical, Cow; settings: pH 8.4, 37° C., 10 minutes, 0.4 U/ml; for Selectivity FXa, absorbance (O.D.) at 405 nm: TABLE 3, PNA substrates, So = 0.54 mmole/l; for Selectivity FXa, absorbance (O.D.) at 645 nm: TABLE 4, CHA substrates, So = 0.54
Factor-Xa (FXa), sequence (P00743 41-180): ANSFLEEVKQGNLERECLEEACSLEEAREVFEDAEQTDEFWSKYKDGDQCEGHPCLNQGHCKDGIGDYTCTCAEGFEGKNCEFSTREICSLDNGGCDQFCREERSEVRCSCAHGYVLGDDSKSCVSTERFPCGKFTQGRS
Factor-Xa (FXa), sequence (P00743 234-492): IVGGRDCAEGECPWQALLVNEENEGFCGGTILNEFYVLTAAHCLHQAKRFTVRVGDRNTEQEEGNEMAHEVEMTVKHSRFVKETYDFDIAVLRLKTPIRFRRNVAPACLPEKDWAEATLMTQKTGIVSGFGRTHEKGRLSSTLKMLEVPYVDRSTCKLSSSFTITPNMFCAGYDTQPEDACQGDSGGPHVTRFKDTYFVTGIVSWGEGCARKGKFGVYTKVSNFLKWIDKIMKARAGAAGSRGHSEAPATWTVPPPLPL
Procedure: as §1, §2, §3, §4, §5

Urokinase (UK) = Urokinase (UK) (Homo sapiens, UniProt P00749); assay type: biochemical; settings: pH 8.2, 37° C., 10 minutes, 1000 IU/ml; for Selectivity UK, absorbance (O.D.) at 405 nm: TABLE 3, PNA substrates, So = 0.54 mmole/l; for Selectivity UK, absorbance (O.D.) at 645 nm: TABLE 4, CHA substrates, So = 0.54
Procedure: as §1, §2, §3, §4, §5

plasmin (pig) [2] = target: T1, plasmin (pig); settings: prior substrate; enzyme not stated in the sentence (plasmin substrates); cited from earlier work
[3] = system: coagulation and linear dissolution related enzymes such as thrombin, Factor Xa, UK; settings: prior substrate, cited from earlier work
Human Thrombin = settings: read-out: Michaelis's constant (Km); cited from earlier work
Human Plasmin = settings: read-out: Michaelis's constant (Km); cited from earlier work
[4] = TABLE 1, V/Km of each sample divided by that of S2251
[5] = TABLE 2, V/Km of each sample divided by that of S2251 (so in the source)

SMILES	Vmax (× 10^-6) [mole/min/Cu] (plasmin (pig) [1])	V/Km (× 10^-3) (plasmin (pig) [1])	Vmax (× 10^7) (plasmin (pig) [1])	Relative ratio (plasmin (pig) [1]; [4])	Selectivity TH, absorbance (O.D.) at 405 nm (Thrombin (TH)) [O.D.]	Selectivity PL, absorbance (O.D.) at 405 nm (Plasmin (PL)) [O.D.]	Selectivity KL, absorbance (O.D.) at 405 nm (Kallikrein (KL)) [O.D.]	Selectivity FXa, absorbance (O.D.) at 405 nm (Factor-Xa (FXa)) [O.D.]	Selectivity UK, absorbance (O.D.) at 405 nm (Urokinase (UK)) [O.D.]	Vmax (× 10^-7) (plasmin (pig) [1])	Relative ratio (plasmin (pig) [1]; [5])	Selectivity TH, absorbance (O.D.) at 645 nm (Thrombin (TH)) [O.D.]	Selectivity PL, absorbance (O.D.) at 645 nm (Plasmin (PL)) [O.D.]	Selectivity KL, absorbance (O.D.) at 645 nm (Kallikrein (KL)) [O.D.]	Selectivity FXa, absorbance (O.D.) at 645 nm (Factor-Xa (FXa)) [O.D.]	Selectivity UK, absorbance (O.D.) at 645 nm (Urokinase (UK)) [O.D.]	other results
Cc1ccc(S(=O)(=O)NCC(=O)N2CCC[C@H]2C(=O)N[C@@H](CCCCN)C(=O)Nc2ccc([N+](=O)[O-])cc2)cc1 [CHR-PL, Tos-Gly-Pro-Lys-PNA, reference compound] (HELM PEPTIDE1{[Cc1ccc(S(=O)(=O)[*:2])cc1].G.P.K.[O=[N+]([O-])c1ccc(N[*:1])cc1]}$$$$V2.0)	6.0 × 10^-6 mole/min/Cu	21.628 × 10^-3	60.067 × 10^7	1.889	0.057	0.647	0.004	0.026	0.069								Km value compared with S-2251 (in words) (plasmin (pig) [2]): smaller than that of S-2251; reaction with coagulation and linear dissolution related enzymes such as thrombin, Factor Xa, UK ([3]; in words): considerably reacts
N=C(N)NCCC[C@H](NC(=O)[C@@H]1CCCCN1C(=O)[C@H](N)Cc1ccccc1)C(=O)Nc1ccc([N+](=O)[O-])cc1 [S-2238]																	Km (Human Thrombin): 7 µM
CC(C)C[C@H](NC(=O)[C@H](N)C(C)C)C(=O)N[C@@H](CCCCN)C(=O)Nc1ccc([N+](=O)[O-])cc1 [S-2251, H-D-Val-Leu-Lys-PNA, reference compound] (HELM PEPTIDE1{[dV].L.K.[O=[N+]([O-])c1ccc(N[*:1])cc1]}$$$$V2.0)	4.0 × 10^-6 mole/min/Cu	11.449 × 10^-3	39.876 × 10^7	1.000	0.001	0.306	0.017	0.007	0.001								Km (Human Plasmin): 300 µM; selectivity (in words) [3]: comparatively good selectivity
Cc1ccc(S(=O)(=O)NCCCC[C@@H](N)C(=O)N[C@@H](Cc2ccccc2)C(=O)N[C@@H](CCCCN)C(=O)Nc2ccc(O)c(C(=O)O)c2)cc1 [NPC-7, 2HCl.H-D-Lys(ToS)-L-Phe-L-Lys-CHA]										29.417 × 10^-7	128.468	0	0.420	0.007	0.001	0	
CS(=O)(=O)NCCCC[C@@H](N)C(=O)N[C@@H](Cc1ccccc1)C(=O)N[C@@H](CCCCN)C(=O)Nc1ccc(O)c(C(=O)O)c1 [NPC-25]										15.803 × 10^-7	43.613	0	0.185	0.006	0	0	
NCCCC[C@H](NC(=O)[C@H](Cc1ccccc1)NC(=O)[C@H](N)CCC(=O)NCCc1ccccc1)C(=O)Nc1ccc([N+](=O)[O-])cc1 [NPN-4] (HELM PEPTIDE1{[dE].F.K.[O=[N+]([O-])c1ccc(N[*:1])cc1]}|CHEM1{[c1ccc(CCN[*:1])cc1]}$PEPTIDE1,CHEM1,1:R3-1:R1$$$V2.0)			23.895 × 10^7	7.481	0.001	0.330	0.010	0.006	0.002								
